Experiments:
[1] = system: GM-CSFR/JAK2/STAT5 pathway in CSTF-1 cells; experiment: CSTF-1 cell-based reporter assay (beta-lactamase reporter, GM-CSF stimulated); conditions: Homo sapiens, GM-CSF at 2 ng/mL, 4 hours, read-out: Cell Assay: CS TF-1 reporter assay IC50
Experimental: CSTF-1 cells are derived from the human erythroleukemia cell line that is growth dependent on GM-CSF and has an intact GM-CSFR/JAK2/STAT5 pathway. The cell line contains stably integrated beta-lactamase reporter gene under the control of the […] (irf 1) response element recognized by the activated transcription factor STAT5. csTF-1 cells (Invitrogen K1219) were washed with assay media (97% OPTIMEM/0.5% dialyzed FBS/0.1 mM NEAA/1 mM Na pyr/P/S) and seeded in the same media at 5×10^5 cell/mL in T150 flask. After 16 hour incubation, cells were seeded at 2×10^5 cell/well in 50 μl volume, into Costar, clear bottom, 96-well assay plates. Serial dilutions of compounds were added to the plates with final DMSO concentration at 0.5% and GM-CSF at 2 ng/mL and the plates were then incubated at 30° C. and 5% CO2 for 4 hours. The plates were brought to room temperature before adding Substrate Mixture according to manufacturer's protocol (Invitrogen, Catalog #K1085). The assay plates containing the substrate mixture were incubated in the dark at room temperature for 2 hours. Blue and green fluorescence was measured with excitation at 409 nm and emission at 460 nm (for blue) and excitation at 409 nm and emission at 530 nm (for green) using Spectra Max Gemini EM.

[2] = molecular target: T1, JAK2 (Homo sapiens, UniProt O60674); experiment: Competition binding assay to determine Kd against JAK kinases: JAK2
T1 construct: made in house
Experimental: (§1) Competition binding assays used herein were developed, validated and performed as described in Fabian et al., Nature Biotechnology 2005, 23, 329-336. Kinases were produced as fusions to T7 phage (See, Fabian et al. or WO04/015142) or alternatively, the kinases were expressed in HEK-293 cells and subsequently tagged with DNA for PCR detection (See, WO08/005,310). For the binding assays, streptavidin-coated magnetic beads were treated with biotinylated affinity ligands for 30 min at rt to generate affinity resins. The liganded beads were blocked with excess biotin and washed with blocking buffer (SeaBlock (Pierce), 1% BSA, 0.05% Tween 20, 1 mM DTT) to remove unbound ligand and to reduce non-specific binding. Binding reactions were assembled by combining kinase, liganded affinity beads, and test compounds in 1× binding buffer (20% SeaBlock, 0.17×PBS, 0.05% Tween 20, 6 mM DTT). Test compounds were prepared as 100× stocks in DMSO and rapidly diluted into the aqueous environment. DMSO was added to control assays lacking a test compound. Primary screen interactions were performed in polypropylene 384-well plates in a final volume of 34 μL, while Kd determinations were performed in polystyrene 96-well plates in a final volume of 135 μL. The assay plates were incubated at room temperature with shaking for 1 hour, long enough for binding reactions to reach equilibrium, and the affinity beads were washed extensively with wash buffer (1×PBS, 0.05% Tween 20) to remove unbound protein. The beads were then resuspended in elution buffer (1×PBS, 0.05% Tween 20, 2 μM non-biotinylated affinity ligand) and incubated at room temperature with shaking for 30 min. The kinase concentration in the eluates was measured by quantitative PCR. Each kinase was tested individually against each compound. Kds were determined using eleven serial threefold dilutions. A selectivity score, which is a quantitative measure of selectivity of a compound against a panel of enzymes, may be calculated for a compound by dividing the number of enzymes for which a compound meets a set criteria, (for example, a binding constant of 100 nM or less), by the total number of enzymes tested.

[3] = molecular target: T2, JAK3 (Homo sapiens, UniProt P52333); experiment: Competition binding assay to determine Kd against JAK kinases: JAK3
T2 construct: made in house
T2 sequence (P52333 1-1124): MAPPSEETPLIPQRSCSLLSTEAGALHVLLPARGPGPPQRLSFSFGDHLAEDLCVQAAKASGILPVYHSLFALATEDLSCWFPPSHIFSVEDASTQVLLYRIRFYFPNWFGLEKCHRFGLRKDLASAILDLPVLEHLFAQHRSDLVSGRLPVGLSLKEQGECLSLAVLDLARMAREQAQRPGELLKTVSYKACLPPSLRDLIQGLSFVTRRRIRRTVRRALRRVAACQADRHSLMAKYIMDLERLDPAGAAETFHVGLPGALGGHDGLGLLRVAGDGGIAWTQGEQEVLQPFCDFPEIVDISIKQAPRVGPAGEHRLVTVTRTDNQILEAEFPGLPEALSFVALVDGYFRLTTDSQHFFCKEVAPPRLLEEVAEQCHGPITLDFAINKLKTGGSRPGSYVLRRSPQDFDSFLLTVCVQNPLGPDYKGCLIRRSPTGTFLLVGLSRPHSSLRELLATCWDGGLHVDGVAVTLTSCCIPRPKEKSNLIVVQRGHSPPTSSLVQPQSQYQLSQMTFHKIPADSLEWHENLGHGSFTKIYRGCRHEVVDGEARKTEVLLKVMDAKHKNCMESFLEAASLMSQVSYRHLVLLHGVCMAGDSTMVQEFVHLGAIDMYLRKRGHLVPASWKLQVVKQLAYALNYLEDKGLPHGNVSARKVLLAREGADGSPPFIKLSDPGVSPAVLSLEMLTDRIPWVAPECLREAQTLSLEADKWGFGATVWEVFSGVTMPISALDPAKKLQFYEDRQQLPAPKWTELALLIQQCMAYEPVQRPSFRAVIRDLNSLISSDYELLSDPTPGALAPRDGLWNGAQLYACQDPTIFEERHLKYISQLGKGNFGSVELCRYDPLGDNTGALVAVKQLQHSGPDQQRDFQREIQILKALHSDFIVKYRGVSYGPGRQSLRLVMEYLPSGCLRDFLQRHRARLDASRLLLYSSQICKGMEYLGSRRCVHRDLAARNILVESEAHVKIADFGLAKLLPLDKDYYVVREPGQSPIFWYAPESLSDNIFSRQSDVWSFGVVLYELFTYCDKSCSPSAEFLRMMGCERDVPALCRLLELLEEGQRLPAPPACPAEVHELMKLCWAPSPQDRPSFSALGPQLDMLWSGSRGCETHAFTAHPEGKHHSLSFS
Experimental: as §1

[4] = molecular target: T3, TYK2 (Homo sapiens, UniProt P29597); experiment: Competition binding assay to determine Kd against JAK kinases: TYK2
T3 construct: made in house
Experimental: as §1

[5] = system: panel of distinct kinases excluding mutant variants, typically 359 or 386 kinases; experiment: Kinase selectivity score S10 from competition binding panel; conditions: compound at 10 μM; fraction of kinases with inhibition of 90% or greater
Experimental: as §1

T3 sequence (P29597 whole entry): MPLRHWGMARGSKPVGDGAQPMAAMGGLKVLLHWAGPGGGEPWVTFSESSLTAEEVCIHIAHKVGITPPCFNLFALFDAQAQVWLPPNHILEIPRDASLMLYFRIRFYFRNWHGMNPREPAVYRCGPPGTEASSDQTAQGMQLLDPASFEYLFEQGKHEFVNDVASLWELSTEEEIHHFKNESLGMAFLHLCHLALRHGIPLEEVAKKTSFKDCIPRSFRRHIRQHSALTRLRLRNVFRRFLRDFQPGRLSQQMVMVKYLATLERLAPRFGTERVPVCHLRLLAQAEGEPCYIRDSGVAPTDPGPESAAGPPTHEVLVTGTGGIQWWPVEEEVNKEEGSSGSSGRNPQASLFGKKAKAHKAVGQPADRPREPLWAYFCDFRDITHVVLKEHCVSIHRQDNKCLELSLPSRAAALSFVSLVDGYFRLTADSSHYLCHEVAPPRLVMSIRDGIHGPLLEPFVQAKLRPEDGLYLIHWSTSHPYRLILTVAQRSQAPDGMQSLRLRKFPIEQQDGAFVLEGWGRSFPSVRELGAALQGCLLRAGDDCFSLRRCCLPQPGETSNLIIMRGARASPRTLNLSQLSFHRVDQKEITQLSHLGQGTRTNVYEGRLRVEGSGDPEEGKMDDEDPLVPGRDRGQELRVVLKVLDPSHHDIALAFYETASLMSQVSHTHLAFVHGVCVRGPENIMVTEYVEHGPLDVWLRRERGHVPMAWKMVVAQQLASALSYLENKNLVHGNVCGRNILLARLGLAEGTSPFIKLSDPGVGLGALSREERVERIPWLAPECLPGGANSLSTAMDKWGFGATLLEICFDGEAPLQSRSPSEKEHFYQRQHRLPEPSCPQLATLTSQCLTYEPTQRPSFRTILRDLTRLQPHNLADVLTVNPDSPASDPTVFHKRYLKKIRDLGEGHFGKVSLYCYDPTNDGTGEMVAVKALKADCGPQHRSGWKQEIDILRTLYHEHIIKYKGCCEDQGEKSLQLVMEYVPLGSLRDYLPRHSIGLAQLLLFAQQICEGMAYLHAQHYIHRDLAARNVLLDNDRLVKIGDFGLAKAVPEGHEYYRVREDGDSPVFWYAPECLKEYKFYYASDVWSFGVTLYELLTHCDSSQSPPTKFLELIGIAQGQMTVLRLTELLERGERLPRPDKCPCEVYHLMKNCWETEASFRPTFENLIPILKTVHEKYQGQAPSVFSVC
T1 sequence (O60674 whole entry): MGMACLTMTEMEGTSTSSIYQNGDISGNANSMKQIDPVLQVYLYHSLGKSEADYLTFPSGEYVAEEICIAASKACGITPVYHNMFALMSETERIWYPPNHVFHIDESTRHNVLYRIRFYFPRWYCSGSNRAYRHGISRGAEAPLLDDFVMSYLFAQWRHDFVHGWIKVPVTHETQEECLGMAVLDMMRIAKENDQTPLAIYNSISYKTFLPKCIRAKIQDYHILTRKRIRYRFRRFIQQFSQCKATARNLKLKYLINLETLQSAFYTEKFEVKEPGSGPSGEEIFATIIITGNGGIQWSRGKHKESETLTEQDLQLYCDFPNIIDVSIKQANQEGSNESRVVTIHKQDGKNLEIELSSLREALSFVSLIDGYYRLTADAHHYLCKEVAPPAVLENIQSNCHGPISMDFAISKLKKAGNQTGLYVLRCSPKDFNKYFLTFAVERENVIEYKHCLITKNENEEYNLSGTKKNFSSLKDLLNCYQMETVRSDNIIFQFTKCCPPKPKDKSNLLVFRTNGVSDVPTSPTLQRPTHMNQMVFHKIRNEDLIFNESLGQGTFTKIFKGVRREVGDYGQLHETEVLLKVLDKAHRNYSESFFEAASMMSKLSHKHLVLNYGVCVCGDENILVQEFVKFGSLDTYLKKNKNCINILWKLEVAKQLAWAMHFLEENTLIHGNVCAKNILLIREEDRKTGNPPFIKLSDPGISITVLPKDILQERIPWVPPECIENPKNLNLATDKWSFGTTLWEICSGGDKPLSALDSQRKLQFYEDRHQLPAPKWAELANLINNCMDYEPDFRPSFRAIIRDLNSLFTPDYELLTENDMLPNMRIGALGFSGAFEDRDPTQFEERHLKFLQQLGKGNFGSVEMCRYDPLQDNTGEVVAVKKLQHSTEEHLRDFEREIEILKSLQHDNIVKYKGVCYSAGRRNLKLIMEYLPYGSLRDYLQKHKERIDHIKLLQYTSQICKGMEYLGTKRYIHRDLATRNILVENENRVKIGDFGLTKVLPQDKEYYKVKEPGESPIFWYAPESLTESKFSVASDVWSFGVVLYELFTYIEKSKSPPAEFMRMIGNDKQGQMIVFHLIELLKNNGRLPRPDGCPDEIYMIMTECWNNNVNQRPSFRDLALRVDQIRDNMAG

With `Cc1cc(Nc2nc(S(=O)(=O)c3ccc(F)cc3)cc3c(Br)cccc23)n[nH]1` [Example 26, 5-bromo-3-((4-fluorophenyl)sulfonyl)-N-(5-methyl-1H-pyrazol-3-yl)isoquinolin-1-amine] the IC50 [1] was ≤ 0.1 µM, the Kd [2] was ≤ 0.005 µM and the Kd [3] was ≤ 0.01 µM. The Kd [4] was ≤ 0.01 µM and the “S-Score: S(10) at 10 μM” value [5] was “A (A ≦ 0.3)”.

From US20130296363A1, “QUINOLINE AND ISOQUINOLINE DERIVATIVES FOR USE AS JAK MODULATORS” (AMBIT BIOSCIENCES CORPORATION, priority 2010, published 2013)
